Experimental data from article PMC10866072, “Design, synthesis, molecular modelling and biological evaluation of novel 6-amino-5-cyano-2-thiopyrimidine derivatives as potent anticancer agents against leukemia and apoptotic inducers” (Journal of Enzyme Inhibition and Medicinal Chemistry, 2024).

Columns and labels:
MDA-MB-231/ATCC = assay type: cell-based; details: Homo sapiens, one dose 10^-5 M, 48 h
NCI-H522 = assay type: cell-based; details: Homo sapiens, one dose 10^-5 M, 48 h
RXF 393 = assay type: cell-based; details: Homo sapiens, RXF 393, 48 h, one dose 10^-5 M, 48 h, read-out: % growth
A549/ATCC = assay type: cell-based; details: Homo sapiens, one dose 10^-5 M, 48 h
[1] = tested on: full NCI 60 cell lines panel
SK-MEL-28 = assay type: cell-based; details: Homo sapiens, one dose 10^-5 M, 48 h
ACHN = assay type: cell-based; details: Homo sapiens, one dose 10^-5 M, 48 h
A498 = assay type: cell-based; details: Homo sapiens, one dose 10^-5 M, 48 h
TK-10 = assay type: cell-based; details: Homo sapiens, one dose 10^-5 M, 48 h
HCC-2998 = assay type: cell-based; details: Homo sapiens, one dose 10^-5 M, 48 h
PC-3 = assay type: cell-based; details: Homo sapiens, one dose 10^-5 M, 48 h
K-562 = assay type: cell-based; details: Homo sapiens, K562, one dose 10^-5 M, 48 h
NCI-H460 = assay type: cell-based; details: Homo sapiens, one dose 10^-5 M, 48 h, read-out: % growth
SW-620 = assay type: cell-based; details: Homo sapiens, one dose 10^-5 M, 48 h
SNB-19 = assay type: cell-based; details: Homo sapiens, one dose 10^-5 M, 48 h, read-out: % growth
SF-539 = assay type: cell-based; details: Homo sapiens, one dose 10^-5 M, 48 h
T-47D = assay type: cell-based; details: Homo sapiens, T47D, one dose 10^-5 M, 48 h, read-out: % growth
OVCAR-4 = assay type: cell-based; details: Homo sapiens, one dose 10^-5 M, 48 h
HS 578T = assay type: cell-based; details: Homo sapiens; one dose 10^-5 M, 48 h; HS 578T; read-out: % growth
SNB-75 = assay type: cell-based; details: Homo sapiens, one dose 10^-5 M, 48 h
M14 = assay type: cell-based; details: Homo sapiens, one dose 10^-5 M, 48 h
HL-60(TB) = assay type: cell-based; details: Homo sapiens, one dose 10^-5 M, 48 h
SK-MEL-5 = assay type: cell-based; details: Homo sapiens, one dose 10^-5 M, 48 h, read-out: % growth
UO-31 = assay type: cell-based; details: Homo sapiens, UO-31, 48 h, one dose 10^-5 M, 48 h
CCRF-CEM = assay type: cell-based; details: Homo sapiens, one dose 10^-5 M, 48 h
SR = assay type: cell-based; details: Homo sapiens, one dose 10^-5 M, 48 h
HT29 = assay type: cell-based; details: Homo sapiens, HT-29, one dose 10^-5 M, 48 h
MALME-3M = assay type: cell-based; details: Homo sapiens, one dose 10^-5 M, 48 h
UACC-257 = assay type: cell-based; details: Homo sapiens, one dose 10^-5 M, 48 h
NCI-H226 = assay type: cell-based; details: Homo sapiens, one dose 10^-5 M, 48 h
SN12C = assay type: cell-based, human; details: Homo sapiens, one dose 10^-5 M, 48 h
LOX IMVI = assay type: cell-based; details: Homo sapiens, one dose 10^-5 M, 48 h, read-out: % growth
EKVX = assay type: cell-based; details: Homo sapiens, one dose 10^-5 M, 48 h
RPMI-8226 = assay type: cell-based; details: Homo sapiens, one dose 10^-5 M, 48 h
HOP-92 = assay type: cell-based; details: Homo sapiens, one dose 10^-5 M, 48 h
MOLT-4 = assay type: cell-based; details: Homo sapiens, one dose 10^-5 M, 48 h, read-out: % growth
HCT-116 = assay type: cell-based; details: Homo sapiens, one dose 10^-5 M, 48 h, read-out: % growth
IGROV1 = assay type: cell-based; details: Homo sapiens, IGROV-1, one dose 10^-5 M, 48 h, read-out: % growth
HOP-62 = assay type: cell-based; details: Homo sapiens, one dose 10^-5 M, 48 h
SK-OV-3 = assay type: cell-based; details: Homo sapiens, one dose 10^-5 M, 48 h
U251 = assay type: cell-based; details: Homo sapiens, U-251, one dose 10^-5 M, 48 h
OVCAR-8 = assay type: cell-based; details: Homo sapiens, one dose 10^-5 M, 48 h
SK-MEL-2 = assay type: cell-based; details: Homo sapiens, one dose 10^-5 M, 48 h
HCT-15 = assay type: cell-based; details: Homo sapiens, one dose 10^-5 M, 48 h, read-out: % growth
NCI-H23 = assay type: cell-based; details: Homo sapiens, one dose 10^-5 M, 48 h, read-out: % growth
CAKI-1 = assay type: cell-based; details: Homo sapiens, CAKI-1, 48 h, one dose 10^-5 M, 48 h
DU-145 = assay type: cell-based; details: Homo sapiens, one dose 10^-5 M, 48 h
MCF7 = assay type: cell-based; details: Homo sapiens, one dose 10^-5 M, 48 h, read-out: % growth
KM12 = assay type: cell-based; details: Homo sapiens, one dose 10^-5 M, 48 h
MDA-MB-468 = assay type: cell-based; details: Homo sapiens, one dose 10^-5 M, 48 h
OVCAR-5 = assay type: cell-based; details: Homo sapiens, one dose 10^-5 M, 48 h
MDA-MB-435 = assay type: cell-based; details: Homo sapiens, one dose 10^-5 M, 48 h, read-out: % growth
786-0 = assay type: cell-based; details: Homo sapiens, one dose 10^-5 M, 48 h
SF-268 = assay type: cell-based; details: Homo sapiens, one dose 10^-5 M, 48 h, read-out: % growth
SF-295 = assay type: cell-based; details: Homo sapiens, one dose 10^-5 M, 48 h
OVCAR-3 = assay type: cell-based; details: Homo sapiens, one dose 10^-5 M, 48 h
UACC-62 = assay type: cell-based; details: Homo sapiens, one dose 10^-5 M, 48 h

COc1ccc(C=NNC(=N)c2c(N)nc(S)nc2-c2ccc(Cl)cc2)cc1 [Compound 4j, 4-amino-6–(4-chlorophenyl)-2-mercapto-N'-[(4-methoxyphenyl)methylene] pyrimidine-5-carboximidohydrazide] gave a % growth at 10 µM (MDA-MB-231/ATCC) of 91.3%, a % growth at 10 µM (NCI-H522) of 101% and an activity at 10 µM (RXF 393) of 124%. The % growth at 10 µM (A549/ATCC) was 107%, the activity at 10 µM ([1]; Homo sapiens, 60 cell, 48 h, read-out: Mean % growth) was 103% and the “activity on all 60 cancer cell lines tested (in words)” value ([1]; one dose) was “weak activity”. The % cell growth at 10 µM (SK-MEL-28) was 111%, the % growth at 10 µM (ACHN) was 97.4% and the % growth at 10 µM (A498) was 125%. The % cell growth at 10 µM (TK-10) was 143%, the % growth at 10 µM (HCC-2998) was 113% and the percent cell growth at 10 µM (PC-3) was 82.6%. It also gave a % growth at 10 µM (K-562) of 95%, an activity at 10 µM (NCI-H460) of 119% and a % growth at 10 µM (SW-620) of 112%. It also gave an activity at 10 µM (SNB-19) of 90.5%, a % growth at 10 µM (SF-539) of 101% and an activity at 10 µM (T-47D) of 86.8%. For the same compound, the % growth at 10 µM (OVCAR-4) was 99.6%, the activity at 10 µM (HS 578T) was 107% and the % growth at 10 µM (SNB-75) was 103%. For the same compound, the % growth at 10 µM (M14) was 109%, the % growth at 10 µM (HL-60(TB)) was 111% and the activity at 10 µM (SK-MEL-5) was 102%. The % cell growth at 10 µM (UO-31) was 77.5%, the % cell growth at 10 µM (CCRF-CEM) was 89.7% and the percent cell growth at 10 µM (SR) was 97.3%. The % growth at 10 µM (HT29) was 105%, the % growth at 10 µM (MALME-3M) was 105% and the percent cell growth at 10 µM (UACC-257) was 110%. The % growth at 10 µM (NCI-H226) was 125%, the % growth at 10 µM (SN12C) was 93.6% and the activity at 10 µM (LOX IMVI) was 104%. The % cell growth at 10 µM (EKVX) was 94.8%, the % growth at 10 µM (RPMI-8226) was 91.2% and the % growth at 10 µM (HOP-92) was 107%. It also gave an activity at 10 µM (MOLT-4) of 101%, an activity at 10 µM (HCT-116) of 107% and an activity at 10 µM (IGROV1) of 91.5%. The % growth at 10 µM (HOP-62) was 90.3%, the % growth at 10 µM (SK-OV-3) was 93.7% and the % growth at 10 µM (U251) was 107%. It also gave a % growth of cells at 10 µM (OVCAR-8) of 101%, a % growth at 10 µM (SK-MEL-2) of 110% and an activity at 10 µM (HCT-15) of 95.6%. For the same compound, the activity at 10 µM (NCI-H23) was 103%, the % growth at 10 µM (CAKI-1) was 91.9% and the % growth at 10 µM (DU-145) was 118%. For the same compound, the activity at 10 µM (MCF7) was 86.6%, the % growth at 10 µM (KM12) was 100% and the percent cell growth at 10 µM (MDA-MB-468) was 114%. It also gave a percent cell growth at 10 µM (OVCAR-5) of 102%, an activity at 10 µM (MDA-MB-435) of 104% and a % growth at 10 µM (786-0) of 104%. It also gave an activity at 10 µM (SF-268) of 113%, a % cell growth at 10 µM (SF-295) of 97.5% and a % growth at 10 µM (OVCAR-3) of 110%. The % growth at 10 µM (UACC-62) was 92.9%.
